Test results as given in patent publication US20140309244A1, “NOVEL MICROBIOCIDES” (SYNGENTA PARTICIPATIONS AG, priority 2010, published 2014).

Experiments:
[1] = test system: Puccinia recondita f. sp. tritici; experiment: Puccinia recondita f. sp. tritici / wheat / leaf disc preventative (brown rust); format: in vivo; conditions: foliar, wheat cv Kanzler leaf segments, inoculated 1 day after application, assessed 7-9 days after application, read-out: control of Puccinia recondita f. sp. tritici (percent disease control compared to untreated)
Protocol: Puccinia recondita f. sp. tritici/Wheat/Leaf Disc Preventative (Brown Rust) Wheat leaf segments cultivated variety (cv) Kanzler were placed on agar in 24-well plates and sprayed with formulated test compound diluted in water at an application rate of 200 ppm. The leaf disks were inoculated with a spore suspension of the fungus 1 day after application. The inoculated leaf segments were incubated at 19° C. and 75% relative humidity under a light regime of 12/12 h (light/dark) in a climate cabinet and the activity of a compound was assessed as percent disease control compared to untreated when an appropriate level of disease damage appears in untreated check leaf segments (7-9 days after application). […].103

[2] = test system: Puccinia recondita f. sp. tritici; experiment: Puccinia recondita f. sp. tritici / wheat / leaf disc curative (brown rust); format: in vivo; conditions: foliar, wheat cv Kanzler leaf segments, applied 1 day after inoculation, assessed 6-8 days after application, read-out: control of Puccinia recondita f. sp. tritici (percent disease control compared to untreated)
Protocol: Puccinia recondita f. sp. tritici/Wheat/Leaf Disc Curative (Brown Rust): Wheat leaf segments cv Kanzler were placed on agar in 24-well plates. The leaf segments were inoculated with a spore suspension of the fungus. The plates were stored in darkness at 19° C. and 75% relative humidity. The formulated test compound diluted in water was applied at an application rate of 200 ppm 1 day after inoculation.

[3] = test system: Phaeosphaeria nodorum (Septoria nodorum); experiment: Phaeosphaeria nodorum (Septoria nodorum) / wheat / leaf disc preventative (glume blotch); format: in vivo; conditions: Parastagonospora nodorum, foliar, wheat cv Kanzler leaf segments, inoculated 2 days after application, assessed 5-7 days after application, read-out: control of Phaeosphaeria nodorum (percent disease control compared to untreated)
Pyrenophora teres = Pyrenophora teres / barley / leaf disc preventative (net blotch); format: in vivo; conditions: foliar, barley cv Hasso leaf segments, inoculated two days after application, assessed 5-7 days after application, read-out: control of Pyrenophora teres (disease control compared to untreated)
[4] = test system: Botryotinia fuckeliana (Botrytis cinerea); experiment: Botryotinia fuckeliana (Botrytis cinerea) / liquid culture (gray mould); format: cell-based; conditions: Vogels broth, 96-well plate, 24° C., 3-4 days after application, read-out: control of Botryotinia fuckeliana (inhibition of growth, photometric)
[5] = test system: Glomerella lagenarium (Colletotrichum lagenarium); experiment: Glomerella lagenarium (Colletotrichum lagenarium) / liquid culture (anthracnose); format: cell-based; conditions: Colletotrichum orbiculare, PDB potato dextrose broth, 96-well plate, 24° C., 3-4 days after application, read-out: control of Glomerella lagenarium (inhibition of growth, photometric)
[6] = test system: Mycosphaerella arachidis (Cercospora arachidicola); experiment: Mycosphaerella arachidis (Cercospora arachidicola) / liquid culture (early leaf spot); format: cell-based; conditions: PDB potato dextrose broth, 96-well plate, 24° C., 4-5 days after application, read-out: control of Mycosphaerella arachidis (inhibition of growth, photometric)
[7] = test system: Mycosphaerella graminicola (Septoria tritici); experiment: Mycosphaerella graminicola (Septoria tritici) / liquid culture (Septoria blotch); format: cell-based; conditions: Zymoseptoria tritici, PDB potato dextrose broth, 96-well plate, 24° C., 4-5 days after application, read-out: control of Mycosphaerella graminicola (inhibition of growth, photometric)
Gaeumannomyces graminis = Gaeumannomyces graminis / liquid culture (take-all of cereals); format: cell-based; conditions: liquid culture of mycelial fragments, PDB potato dextrose broth, 96-well plate, 24° C., 4-5 days after application, read-out: control of Gaeumannomyces graminis (inhibition of growth, photometric)
[8] = test system: Thanatephorus cucumeris (Rhizoctonia solani); experiment: Thanatephorus cucumeris (Rhizoctonia solani) / liquid culture (foot rot, damping-off); format: cell-based; conditions: liquid culture of mycelia fragments, PDB potato dextrose broth, 96-well plate, 24° C., 3-4 days after application, read-out: control of Thanatephorus cucumeris (inhibition of growth, photometric)
Protocol: Thanatephorus cucumeris (Rhizoctonia solani)/Liquid Culture (Foot Rot, Damping-Off): Mycelia fragments of a newly grown liquid culture of the fungus are directly mixed into nutrient broth (PDB potato dextrose broth). After placing a DMSO solution of the test compounds into a 96-well microtiter plate at an application rate of 200 ppm, the nutrient broth containing the fungal material was added. The test plates were incubated at 24° C. and the inhibition of growth was determined photometrically 3-4 days after application.

[9] = test system: Monographella nivalis (Microdochium nivale); experiment: Monographella nivalis (Microdochium nivale) / liquid culture (foot rot cereals); format: cell-based; conditions: PDB potato dextrose broth, 96-well plate, 24° C., 4-5 days after application, read-out: control of Monographella nivalis (inhibition of growth, photometric)
Procedure, shortened: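 Cryostored conidia in potato dextrose broth added to test compound in DMSO at 200 ppm. Incubated at 24° C; growth inhibition read photometrically 4-5 days after application.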

[10] = test system: Blumeria graminis f. sp. tritici (Erysiphe graminis f. sp. tritici); experiment: Blumeria graminis f. sp. tritici (Erysiphe graminis f. sp. tritici) / wheat / leaf disc preventative (powdery mildew on wheat); format: in vivo; conditions: foliar, wheat cv. Kanzler leaf segments, inoculated 1 day after application, assessed 6-8 days after application, read-out: control of Blumeria graminis (percent disease control compared to untreated)
[11] = test system: Magnaporthe grisea (Pyricularia oryzae); experiment: whole plant or invertebrate; format: in vivo; conditions: foliar, read-out: control of Magnaporthe grisea (percent disease control compared to untreated)

CO/N=C(\C)c1cccc(CCCO/N=C2\CCCc3cc4c(nc32)CCCC4)n1 [P.94]
≥ 80%: pest or weed control at 200 ppm [1] | pest or weed control at 200 ppm [2] | pest or weed control at 200 ppm [3] | pest or weed control at 200 ppm (Pyrenophora teres) | inhibition at 200 ppm [4] | inhibition at 200 ppm [5] | inhibition at 200 ppm [6] | inhibition at 200 ppm [7] | inhibition at 200 ppm (Gaeumannomyces graminis) | inhibition at 200 ppm [8] | inhibition at 200 ppm [9] | pest or weed control at 200 ppm [10] | pest or weed control at 200 ppm [11]

CO/N=C(\C)c1cccc(CCCO/N=C2\CCCc3cc4ccccc4nc32)n1 [P.100]
≥ 80%: pest or weed control at 200 ppm [1] | pest or weed control at 200 ppm [2] | pest or weed control at 200 ppm [3] | pest or weed control at 200 ppm (Pyrenophora teres) | inhibition at 200 ppm [4] | inhibition at 200 ppm [5] | inhibition at 200 ppm [6] | inhibition at 200 ppm [7] | inhibition at 200 ppm (Gaeumannomyces graminis) | inhibition at 200 ppm [8] | inhibition at 200 ppm [9] | pest or weed control at 200 ppm [10] | pest or weed control at 200 ppm [11]
